Results reported in US10828337B2, “Materials and methods for controlling vasculogenesis from endothelial colony forming cells” (Indiana University Research and Technology Corporation, priority 2011, dated 2020).

Tested on: ECFC vacuole formation
Test: Perturbation of ECFC vacuole formation by inhibitors
Assay type: cell-based, Human
Details: for way in which total vacuole area was decreased: Casin 2.5 μM (Cdc42), NSC23766 25 μM (Rac1), 3.0 mg/ml oligomer rich matrices (FIGS. 11 G, H); for effect on ECFC vacuole formation: MAB17781 1 μg/ml, Casin 2.5 μM, NSC23766 25 μM, TIMP-3 5 μg/ml
Experimental: For analysis of in vitro vacuole formation, cultures were fixed with 4% paraformaldehyde for 20 minutes at 48 hours. Scaffolds were stained with 0.1% toluidine blue 0 in 30% methanol for 20 minutes and then washed with PBS.
A Leica DM IRE2 microscope (Leica Microsystems, Bannockburn, Ill.) with attached Retiga 4000R digital camera (QImaging, Surrey, BC, Canada) was used to image the entire area of each matrix using a 10× objective and the middle 9 fields of view were used for analysis. Lumens were quantified using a standard image analysis system Metamorph (Molecular Devices, Sunnyvale, Calif.). […] Lumens were defined as areas completely surround by a toluidine blue labeled endothelial cell membrane.
Chemical inhibitors TIMP-3 (5 μg/ml, R&D Systems, Minneapolis, Minn.), Casin (2.5 μM), NSC23766 (25 μM), or MAB17781 (1 μg/ml, R&D Systems, Minneapolis, Minn.) were added into the media during ECFC culture in 3.0 mg/ml matrices polymerized with the oligomer rich fraction. Treatments were conducted in duplicate and at least three independent experiments were conducted.
To first determine if this signaling axis was involved in ECFC vacuole formation chemical inhibitors to β1 integrin, Cdc42, Rac1, and MT1-MMP were added to cultures to test if they would alter cell behavior.

[1] = 3.0 mg/ml oligomer rich matrices

Row | Molecule | way in which total vacuole area was decreased | effect on ECFC vacuole formation [1] | vacuole density (inhibitor in media (MAB17781 1 μg/ml, TIMP-3 5 μg/ml), 3.0 mg/ml oligomer rich matrices, control 11.24±0.65) | vacuole area (inhibitor in media (MAB17781 1 μg/ml, TIMP-3 5 μg/ml), 3.0 mg/ml oligomer rich matrices, control 536.09±138.24) | total vacuole area (inhibitor in media (MAB17781 1 μg/ml, TIMP-3 5 μg/ml), 3.0 mg/ml oligomer rich matrices, control 19103.60±5447.67)
1 | OCCNC1CCCc2c1[nH]c1ccc(-c3ccccc3)cc21 (centres unmarked) [Casin] | decreased total vacuole area by decreasing vacuole density | inhibited ECFC vacuole formation |  |  | 
2 | CCN(CC)CCCC(C)Nc1nc(C)cc(Nc2ccc3nc(C)cc(N)c3c2)n1 (centres unmarked) [NSC23766] | decreased total vacuole area by decreasing average vacuole area | inhibited ECFC vacuole formation |  |  | 
3 | TIMP-3: inhibitor (R&D Systems) added to the cultures to inhibit MT1-MMP activity (protein, UniProt P35625 24-211, looked up) Metalloproteinase inhibitor 3: CTCSPSHPQDAFCNSDIVIRAKVVGKKLVKEGPFGTLVYTIKQMKMYRGFTKMPHVQYIHTEASESLCGLKLEVNKYQYLLTGRVYDGKMYTGLCNFVERWDQLTLSQRKGLNYRYHLGCNCKIKSCYYLPCFVTSKNECLWTDMLSNFGYPGYQSKHYACIRQKGGYCSWYRGWAPPDKSIINATDP |  | inhibited ECFC vacuole formation | 3.31±1.38 vacuoles/mm^2 | 146.04±45.86 μm^2 | 2288.76±1685.92 μm^2
